Data reported in ChEMBL document CHEMBL3885861, “Open TG-GATES”.

Species: Rattus norvegicus
Experiment: Open TG-GATES - Regimen: Single
Format: toxicity, organism-based, Sprague-Dawley
Set-up: regimen Single, gender Male, age 6 weeks
Details: in vivo, po, 120 mg/kg, route gavage, dose level Middle; for APTT / Bas / Eos / Fbg / Hb / Ht / Lym / MCH / MCHC / MCV / Mono / Neu / PT / Plat / RBC / Ret / WBC: tissue Blood; for KIDNEY_L / KIDNEY_R / KIDNEY_TOTAL: tissue Kidney; for LIVER: tissue Liver; for A/G / ALP / ALT / AST / BUN / CRE / Ca / Cl / DBIL / GLC / IP / K / LDH / Na / PL / RALB / TBIL / TC / TG / TP / gamma-GTP: tissue Plasma

Cc1cccc(C)c1OCC(C)N (configuration not stated) [MEXILETINE]
TERMINAL_BW (3 h): 218.1 g
APTT (3 h): 21.8 s
Bas (3 h): 0%
Eos (3 h): 0.4%
Fbg (3 h): 310.2 mg/dL
Hb (3 h): 13.1 g/dL
Ht (3 h): 40.6%
Lym (3 h): 83.2%
MCH (3 h): 20.1 pg
MCHC (3 h): 32.2%
MCV (3 h): 62.6 fL
Mono (3 h): 2%
Neu (3 h): 13.6%
PT (3 h): 15.9 s
Plat (3 h): 113.4 x10_4/uL
RBC (3 h): 648.8 x10_4/ul
Ret (3 h): 7.3%
WBC (3 h): 96 x10_2/uL
KIDNEY_L (3 h): 1 g
KIDNEY_R (3 h): 1 g
KIDNEY_TOTAL (3 h): 1.9 g
LIVER (3 h): 10.1 g
A/G (3 h): 1.3
ALP (3 h): 1543.6 IU/L
ALT (3 h): 54.4 IU/L
AST (3 h): 78.4 IU/L
BUN (3 h): 12.8 mg/dL
CRE (3 h): 0.2 mg/dL
Ca (3 h): 10.5 mg/dL
Cl (3 h): 106.4 meq/L
DBIL (3 h): 0 mg/dL
GLC (3 h): 182.6 mg/dL
IP (3 h): 9.4 mg/dL
K (3 h): 4.4 meq/L
LDH (3 h): 175.2 IU/L
Na (3 h): 141.6 meq/L
PL (3 h): 135 mg/dL
RALB (3 h): 3.1 g/dL
TBIL (3 h): 0.018 mg/dL
TC (3 h): 77.2 mg/dL
TG (3 h): 61.8 mg/dL
TP (3 h): 5.5 g/dL
gamma-GTP (3 h): 1.2 IU/L
TERMINAL_BW (6 h): 209 g
APTT (6 h): 21.2 s
Bas (6 h): 0%
Eos (6 h): 0.8%
Fbg (6 h): 318.6 mg/dL
Hb (6 h): 13.2 g/dL
Ht (6 h): 40.5%
Lym (6 h): 77.4%
MCH (6 h): 20.4 pg
MCHC (6 h): 32.6%
MCV (6 h): 62.6 fL
Mono (6 h): 2.4%
Neu (6 h): 19%
PT (6 h): 16.1 s
Plat (6 h): 120.4 x10_4/uL
RBC (6 h): 647 x10_4/ul
Ret (6 h): 6.8%
WBC (6 h): 69.3 x10_2/uL
KIDNEY_L (6 h): 0.9 g
KIDNEY_R (6 h): 0.9 g
KIDNEY_TOTAL (6 h): 1.9 g
LIVER (6 h): 9 g
A/G (6 h): 1.2
ALP (6 h): 1633.4 IU/L
ALT (6 h): 43.8 IU/L
AST (6 h): 73.4 IU/L
BUN (6 h): 9.8 mg/dL
CRE (6 h): 0.2 mg/dL
Ca (6 h): 10.6 mg/dL
Cl (6 h): 107.4 meq/L
DBIL (6 h): 0 mg/dL
GLC (6 h): 184.6 mg/dL
IP (6 h): 8.6 mg/dL
K (6 h): 4.1 meq/L
LDH (6 h): 179.2 IU/L
Na (6 h): 142 meq/L
PL (6 h): 124.6 mg/dL
RALB (6 h): 3.1 g/dL
TBIL (6 h): 0.03 mg/dL
TC (6 h): 68.6 mg/dL
TG (6 h): 48.6 mg/dL
TP (6 h): 5.7 g/dL
gamma-GTP (6 h): 1.2 IU/L
TERMINAL_BW (9 h): 219.2 g
APTT (9 h): 22.9 s
Bas (9 h): 0%
Eos (9 h): 1%
Fbg (9 h): 318.6 mg/dL
Hb (9 h): 12.6 g/dL
Ht (9 h): 39%
Lym (9 h): 78.6%
MCH (9 h): 20.2 pg
MCHC (9 h): 32.3%
MCV (9 h): 62.6 fL
Mono (9 h): 2.4%
Neu (9 h): 17.2%
PT (9 h): 16.3 s
Plat (9 h): 120 x10_4/uL
RBC (9 h): 624 x10_4/ul
Ret (9 h): 7.2%
WBC (9 h): 97.2 x10_2/uL
KIDNEY_L (9 h): 1 g
KIDNEY_R (9 h): 1 g
KIDNEY_TOTAL (9 h): 2 g
LIVER (9 h): 9.5 g
A/G (9 h): 1.2
ALP (9 h): 1531 IU/L
ALT (9 h): 44.6 IU/L
AST (9 h): 71.8 IU/L
BUN (9 h): 10.6 mg/dL
CRE (9 h): 0.2 mg/dL
Ca (9 h): 10.6 mg/dL
Cl (9 h): 104.6 meq/L
DBIL (9 h): 0 mg/dL
GLC (9 h): 188.4 mg/dL
IP (9 h): 9 mg/dL
K (9 h): 4.3 meq/L
LDH (9 h): 143.8 IU/L
Na (9 h): 140.2 meq/L
PL (9 h): 130.4 mg/dL
RALB (9 h): 3 g/dL
TBIL (9 h): 0.02 mg/dL
TC (9 h): 74 mg/dL
TG (9 h): 66.8 mg/dL
TP (9 h): 5.4 g/dL
gamma-GTP (9 h): 1.2 IU/L
TERMINAL_BW (24 h): 231.4 g
APTT (24 h): 19.9 s
Bas (24 h): 0%
Eos (24 h): 0.8%
Fbg (24 h): 293.8 mg/dL
Hb (24 h): 12.8 g/dL
Ht (24 h): 39.5%
Lym (24 h): 81%
MCH (24 h): 20.6 pg
MCHC (24 h): 32.3%
MCV (24 h): 63.8 fL
Mono (24 h): 2.4%
Neu (24 h): 15.2%
PT (24 h): 15.9 s
Plat (24 h): 117.4 x10_4/uL
RBC (24 h): 619.8 x10_4/ul
Ret (24 h): 7.6%
WBC (24 h): 86.1 x10_2/uL
KIDNEY_L (24 h): 1 g
KIDNEY_R (24 h): 1 g
KIDNEY_TOTAL (24 h): 2 g
LIVER (24 h): 10.8 g
A/G (24 h): 1.3
ALP (24 h): 1779.4 IU/L
ALT (24 h): 50 IU/L
AST (24 h): 75 IU/L
BUN (24 h): 17.2 mg/dL
CRE (24 h): 0.2 mg/dL
Ca (24 h): 10.7 mg/dL
Cl (24 h): 106.2 meq/L
DBIL (24 h): 0 mg/dL
GLC (24 h): 188.6 mg/dL
IP (24 h): 7.6 mg/dL
K (24 h): 4.2 meq/L
LDH (24 h): 205 IU/L
Na (24 h): 141.4 meq/L
PL (24 h): 148.4 mg/dL
RALB (24 h): 3.1 g/dL
TBIL (24 h): 0.008 mg/dL
TC (24 h): 74.2 mg/dL
TG (24 h): 150.8 mg/dL
TP (24 h): 5.6 g/dL
gamma-GTP (24 h): 1.6 IU/L
